Measurements taken from patent US9440941B2, “Substituted chroman-6-yloxy-cycloalkanes and their use as pharmaceuticals” (SANOFI, priority 2013, dated 2016).
pIC50: −log10 of the molar value. Structures can show the parent of a compound that is named as a salt.

Molecular target: T1, human NCX1 (Homo sapiens, UniProt P32418)
T1 construct: expressed in transfected cells
Test: Inhibition of Ca2+ influx into cells (NCX1 reverse mode), FLIPR Fluo-4 assay
Type: cell-based
Conditions: inhibition of NCX1 in reverse mode (Ca2+ influx into cells); read-out: NCX1rv IC50
Text: The sodium/calcium exchanger NCX1 can transport calcium ions and sodium ions through the cell membrane. The transport is an exchange of Ca^2+ and Na^+ in two directions depending on membrane potential and ion gradients. At the first direction, named “forward mode” or “calcium export mode”, Ca^2+ is transported out of the cell and Na^+ is transported into the cell. At the other direction, named “reverse mode” or “calcium import mode”, the transport directions are vice versa. The effect of the compounds of the invention on NCX1 was determined in CHO cells stably expressing human NCX1 (gene symbol SLC8A1; cf. WO 2009/115238). The assay is based on the monitoring of intracellular Ca^2+ concentrations using a calcium-sensitive fluorescence dye which is detected by means of a FLIPR device (Fluorimetric Imaging Plate Reader, Molecular Devices).
Assay Technology—Reverse Mode
The assay is based on the monitoring of intracellular Ca^2+ concentrations using the calcium-sensitive dye Fluo-4. CHO cells expressing NCX1 were loaded with the dye by means of the acetoxymethyl ester Fluo-4 AM (Invitrogen, F14202), which is cleaved intracellularly by esterase activity to yield the charged species of free Fluo-4. After an preincubation period with the test compound, Gramicidine (Sigma, G5002) was added. Gramicidine is an ionophor for Na^+ ions mediating an increase of intracellular Na^+ ions. Consequently, intracellular Na^+ ions are exchanged against extracellular Ca^2+ ions (Ca^2+ influx, reverse mode). The intracellular elevation of Ca^2+ ions was detected by measuring the fluorescence of Fluo-4 at a wavelength of 520 nm by a FLIPR device.
Briefly, for the reverse mode transport assay 18000 cells per well were seeded into a 96 well microplate (Corning COSTAR 3904) and incubated overnight in culture medium (1× Nut Mix F12 (Ham) (Gibco, 21765-029); 10% (v/v) fetal calf serum (PAA Gold, A15-649); 450 μg/ml Geneticin (Gibco, 10131-027)). A total volume of 100 μl medium per well was used. For the preparation of the FLIPR assay, the culture medium was removed from the plates and 100 μl of dye solution (2 μM Fluo-4 AM; 0.02% (v/v) Pluronic F-127 (20%, Invitrogen, P3000MP); 0.1% (v/v) bovine albumin solution (30% (v/v), Sigma, A9205) in assay buffer (133.8 mM NaCl (Sigma, S5886); 4.7 mM KCl (Sigma, P3911); 1.25 mM MgCl2 (Merck, 1.05833.0250); 3.5 mM CaCl2 (Merck, 1.02083.0250); 5 mM glucose (Sigma, G7021); 10 mM Hepes (Sigma, H4034); 0.01% (v/v) Pluronic F-127 (5%, Sigma, P2443); 2.5 mM Probenecid (Maybridge, SB00915EB); pH 7.4)) were added into each well. The plates were incubated in the dark at room temperature for 80 min. After the incubation period, the dye solution was removed and the wells were washed with 100 μl of assay buffer. Then 80 μl of a solution of the test compound in assay buffer in different concentrations were added into the wells. The plates were incubated at 16° C. for 45 min. Meanwhile a 60 μM solution of Gramicidine in assay buffer (4° C.) was prepared and stored in the wells of a 96 well microplate (96 well microplate, polypropylene, U-shape (Greiner Bio-One, 650201)) at 4° C. until measurement was started. The fluorescence monitoring was performed at 240 measuring points with measurement intervals of 2 sec. After the fifth measuring point, 40 μl of the Gramicidine solution were added to each well of the assay plates to give a final Gramicidine concentration of 20 μM. For the determination of the IC50 values the minimal fluorescence value was subtracted from the maximal fluorescence value for all measuring points. The calculation of the IC50 values via the percentage inhibitions of Ca^2+ influx into cells (reverse mode) effected by the test compound was performed in Biost@t Speed 2.0.

Compound | pIC50
1,1-Dioxo-N-[4-(2-phenylchroman-6-yloxy)cyclohexyl]-tetrahydrothiophen-3-ylamine [compound 147] | 6.15
4-(2-Phenylchroman-6-yloxy)-N-(2-piperidin-1-ylethyl)cyclohexylamine [compound 145] | 5.68
4-(2-Phenylchroman-6-yloxy)-N-(2-pyrrolidin-1-ylethyl)cyclohexylamine [compound 137] | 5.89
4-(2-Phenylchroman-6-yloxy)-N-(2-thiomorpholin-4-ylethyl)cyclohexylamine [compound 139] | 6.00
NC[C@H]1CC[C@@H](Oc2ccc3c(c2)CCC(c2ccccc2)O3)CC1 (relative stereo) [compound 1, hydrochloride] | 6.30
N[C@H]1CC[C@@H](Oc2ccc3c(c2)CCC(c2ccccc2)O3)CC1 (relative stereo) [compound 2, hydrochloride] | 5.89
CS(=O)(=O)NC[C@H]1CC[C@@H](Oc2ccc3c(c2)CCC(c2ccccc2)O3)CC1 (relative stereo) [compound 3] | 6.15
CC(=O)NC[C@H]1CC[C@@H](Oc2ccc3c(c2)CCC(c2ccccc2)O3)CC1 (relative stereo) [compound 4] | 6.40
CC(=O)N[C@H]1CC[C@@H](Oc2ccc3c(c2)CCC(c2ccccc2)O3)CC1 (relative stereo) [compound 6] | 6.30
O=C(CCn1cncn1)N[C@H]1CC[C@H](Oc2ccc3c(c2)CCC(c2ccccc2)O3)CC1 (relative stereo) [compound 38] | 6.40
c1ccc(C2CCc3cc(O[C@H]4CC[C@H](NCc5cncs5)CC4)ccc3O2)cc1 (relative stereo) [compound 47] | 6.40
c1ccc(C2CCc3cc(O[C@H]4CC[C@H](NCc5ccsc5)CC4)ccc3O2)cc1 (relative stereo) [compound 50] | 6.22
c1ccc(C2CCc3cc(O[C@H]4CC[C@H](NCc5cccs5)CC4)ccc3O2)cc1 (relative stereo) [compound 51] | 6.22
FC(F)(F)CCN[C@H]1CC[C@H](Oc2ccc3c(c2)CCC(c2ccccc2)O3)CC1 (relative stereo) [compound 54] | 6.22
c1ccc(C2CCc3cc(O[C@H]4CC[C@H](NCc5nccs5)CC4)ccc3O2)cc1 (relative stereo) [compound 55] | 6.40
CC(C)(C)CN[C@H]1CC[C@H](Oc2ccc3c(c2)CCC(c2ccccc2)O3)CC1 (relative stereo) [compound 58, N-(2,2-Dimethylpropyl)-[trans-4-(2-phenylchroman-6-yloxy)]-cyclohexylamine] | 6.22
Cc1nn(C)c(C)c1CN[C@H]1CC[C@H](Oc2ccc3c(c2)CCC(c2ccccc2)O3)CC1 (relative stereo) [compound 60] | 6.40
C[C@H]1CC[C@H](NC2CCC(Oc3ccc4c(c3)CCC(c3ccccc3)O4)CC2)CC1 (relative stereo) [compound 146] | 5.70
Cc1ccccc1C1CCc2cc(O[C@H]3CC[C@H](NC(=O)CCn4cccn4)CC3)ccc2O1 (relative stereo) [compound 153] | 5.92
Cc1ccccc1C1CCc2cc(O[C@H]3CC[C@H](NCC4CCOC4)CC3)ccc2O1 (relative stereo) [compound 154, (Tetrahydrofuran-3-ylmethyl)-[trans-4-(2-o-tolyl-chroman-6-yloxy)-cyclohexyl]-amine] | 5.66
Cc1ccccc1C1CCc2cc(O[C@H]3CC[C@H](N(CC4CCOC4)CC4CCOC4)CC3)ccc2O1 (relative stereo) [compound 155, Bis-(tetrahydrofuran-3-ylmethyl)-[trans-4-(2-o-tolyl-chroman-6-yloxy)-cyclohexyl]-amine] | 5.28

Compounds with a higher pIC50, results first:

pIC50 | Compound
6.52 | CC(=O)N[C@H]1CC[C@H](Oc2ccc3c(c2)CCC(c2ccccc2)O3)CC1 (relative stereo) [compound 7]
7.00 | CSCC(=O)N[C@H]1CC[C@H](Oc2ccc3c(c2)CCC(c2ccccc2)O3)CC1 (relative stereo) [compound 19]
6.70 | O=C(N[C@H]1CC[C@H](Oc2ccc3c(c2)CCC(c2ccccc2)O3)CC1)C1CCC1 (relative stereo) [compound 20]
6.70 | CS(=O)(=O)CCC(=O)N[C@H]1CC[C@H](Oc2ccc3c(c2)CCC(c2ccccc2)O3)CC1 (relative stereo) [compound 21]
6.52 | O=C(Cn1cccn1)N[C@H]1CC[C@H](Oc2ccc3c(c2)CCC(c2ccccc2)O3)CC1 (relative stereo) [compound 24]
6.70 | Cc1cc(CC(=O)N[C@H]2CC[C@H](Oc3ccc4c(c3)CCC(c3ccccc3)O4)CC2)on1 (relative stereo) [compound 25]
7.00 | O=C(N[C@H]1CC[C@H](Oc2ccc3c(c2)CCC(c2ccccc2)O3)CC1)C1CC1 (relative stereo) [compound 26]
6.70 | O=C(CC1CC1)N[C@H]1CC[C@H](Oc2ccc3c(c2)CCC(c2ccccc2)O3)CC1 (relative stereo) [compound 27]
6.70 | Cc1ccn(CC(=O)N[C@H]2CC[C@H](Oc3ccc4c(c3)CCC(c3ccccc3)O4)CC2)n1 (relative stereo) [compound 28]
6.52 | Cc1nc(C(=O)N[C@H]2CC[C@H](Oc3ccc4c(c3)CCC(c3ccccc3)O4)CC2)cs1 (relative stereo) [compound 29]
6.52 | COCCC(=O)N[C@H]1CC[C@H](Oc2ccc3c(c2)CCC(c2ccccc2)O3)CC1 (relative stereo) [compound 30]
7.00 | O=C(N[C@H]1CC[C@H](Oc2ccc3c(c2)CCC(c2ccccc2)O3)CC1)c1ccncc1F (relative stereo) [compound 31]
7.00 | O=C(N[C@H]1CC[C@H](Oc2ccc3c(c2)CCC(c2ccccc2)O3)CC1)C1CC1(F)F (relative stereo) [compound 32]
7.00 | O=C(Cn1cncn1)N[C@H]1CC[C@H](Oc2ccc3c(c2)CCC(c2ccccc2)O3)CC1 (relative stereo) [compound 35]
6.52 | Cc1nn(C)c(C)c1CCC(=O)N[C@H]1CC[C@H](Oc2ccc3c(c2)CCC(c2ccccc2)O3)CC1 (relative stereo) [compound 36]
6.52 | Cc1n[nH]c(C)c1CCC(=O)N[C@H]1CC[C@H](Oc2ccc3c(c2)CCC(c2ccccc2)O3)CC1 (relative stereo) [compound 37]
6.52 | O=C(CCn1cccn1)N[C@H]1CC[C@H](Oc2ccc3c(c2)CCC(c2ccccc2)O3)CC1 (relative stereo) [compound 39]
6.52 | Cc1nc(CC(=O)N[C@H]2CC[C@H](Oc3ccc4c(c3)CCC(c3ccccc3)O4)CC2)c(C)s1 (relative stereo) [compound 40]
6.52 | Cc1cc(C)n(CC(=O)N[C@H]2CC[C@H](Oc3ccc4c(c3)CCC(c3ccccc3)O4)CC2)n1 (relative stereo) [compound 41]
6.70 | Cc1ccnn1CCC(=O)N[C@H]1CC[C@H](Oc2ccc3c(c2)CCC(c2ccccc2)O3)CC1 (relative stereo) [compound 42]
7.00 | Cc1n[nH]c(C)c1CC(=O)N[C@H]1CC[C@H](Oc2ccc3c(c2)CCC(c2ccccc2)O3)CC1 (relative stereo) [compound 43]
6.52 | CCC(C)(O)C(=O)N[C@H]1CC[C@H](Oc2ccc3c(c2)CCC(c2ccccc2)O3)CC1 (relative stereo) [compound 44]
6.52 | c1ccc(C2CCc3cc(O[C@H]4CC[C@H](NCC5CCOC5)CC4)ccc3O2)cc1 (relative stereo) [compound 61]
